# Source: US20200325140A1, “FUSED BICYCLIC COMPOUNDS FOR THE TREATMENT OF DISEASE” (Akarna Therapeutics, Ltd., priority 2016, published 2020)
# Biological target: T1, FXR (Homo sapiens, UniProt Q96RI1)
# T1 sequence (Q96RI1 1-486): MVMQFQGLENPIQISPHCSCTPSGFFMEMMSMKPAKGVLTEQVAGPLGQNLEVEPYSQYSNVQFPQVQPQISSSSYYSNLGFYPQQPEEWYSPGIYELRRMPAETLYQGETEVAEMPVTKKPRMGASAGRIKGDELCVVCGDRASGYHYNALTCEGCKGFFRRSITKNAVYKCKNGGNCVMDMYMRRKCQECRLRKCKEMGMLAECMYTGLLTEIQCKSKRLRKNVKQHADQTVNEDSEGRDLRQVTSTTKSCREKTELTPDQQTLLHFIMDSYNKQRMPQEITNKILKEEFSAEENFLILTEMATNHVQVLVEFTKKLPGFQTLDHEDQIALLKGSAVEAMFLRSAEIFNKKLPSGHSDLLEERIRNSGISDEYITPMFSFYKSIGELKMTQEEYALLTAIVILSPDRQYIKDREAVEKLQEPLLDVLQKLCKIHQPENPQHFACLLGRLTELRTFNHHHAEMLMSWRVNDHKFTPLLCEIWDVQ
# Experiment: FXR Agonist Assay (Gaussia luciferase reporter in cells)
# Type: cell-based
# Details: 20 hours incubation, 10-point dilution, duplicate
# Method: Starting from 3.33 mM of compound in DMSO solution, a 10-point 3-fold serial dilution was made by diluting 5 μL of compound into 10 μL of DMSO. The serially diluted compound was then diluted 1:33 into DMEM. This medium was then diluted ten-fold into the culture medium with the cells (10 μL/well). All concentration points are assayed in duplicate. Plates were incubated at 37° C. for 20 hours. After the incubation, 20 μL of culture medium were removed from each well and mixed with 50 μL of assay solution (Pierce™ Gaussia Luciferase Flash Assay Kit). The luminescence was measured immediately after addition of the Luc substrate with an Envision microplate reader. The raw data was uploaded to CDD and dose-response curves were generated using the Levenberg-Marquardt algorithm integrated into CDD. A negative control DMSO is included on each plate and used to normalize the data with the CDD built-in normalization function.
row,EC50 [nM],SMILES
1,1000 to 10000,"CC(C)OC(=O)C1=CN(C(=O)c2ccc(OCCN3CCCC3)cc2)CC(C)(C)c2c(C(F)(F)F)n[nH]c21 [Compound 4, (E)-isopropyl 4,4-dimethyl-6-(4-(2-(pyrrolidin-1-yl)ethoxy)benzoyl)-3-(trifluoromethyl)-1,4,5,6-tetrahydropyrazolo[3,4-d]azepine-8-carboxylate]"
2,< 200,"CC(C)OC(=O)C1=CN(C(=O)c2ccc(OCCn3ccnc3)cc2)CC(C)(C)c2c(C(F)(F)F)n[nH]c21 [Compound 2, (E)-isopropyl 6-(4-(2-(1H-imidazol-1-yl)ethoxy)benzoyl)-4,4-dimethyl-3-(trifluoromethyl)-1,4,5,6-tetrahydropyrazolo[3,4-d]azepine-8-carboxylate]"
3,200 to 1000,"CC(C)OC(=O)C1=CN(C(=O)c2ccc(OCCN(C)C)cc2)CC(C)(C)c2c(C(F)(F)F)n[nH]c21 [Compound 1, (E)-isopropyl 6-(4-(2-(dimethylamino)ethoxy)benzoyl)-4,4-dimethyl-3-(trifluoromethyl)-1,4,5,6-tetrahydropyrazolo[3,4-d]azepine-8-carboxylate]"
4,< 200,"CC(C)OC(=O)C1=CN(C(=O)c2cc(F)c(OCCN3CCOCC3)c(F)c2)CC(C)(C)c2c(C(F)(F)F)n[nH]c21 [Compound 5, (E)-isopropyl 6-(3,5-difluoro-4-(2-morpholinoethoxy)benzoyl)-4,4-dimethyl-3-(trifluoromethyl)-1,4,5,6-tetrahydropyrazolo[3,4-d]azepine-8-carboxylate]"
5,200 to 1000,"CC(C)OC(=O)C1=CN(C(=O)c2ccc(OCCN3CCN(C)CC3)cc2)CC(C)(C)c2c(C(F)(F)F)n[nH]c21 [Compound 3, (E)-isopropyl 4,4-dimethyl-6-(4-(2-(4-methylpiperazin-1-yl)ethoxy)benzoyl)-3-(trifluoromethyl)-1,4,5,6-tetrahydropyrazolo[3,4-d]azepine-8-carboxylate]"
